Reference: ChEMBL document CHEMBL3885861, “Open TG-GATES”

Species on record: Rattus norvegicus
Experiment: Open TG-GATES - Regimen: Single
Format: toxicity, organism-based, Sprague-Dawley
Set-up: regimen Single, gender Male, age 6 weeks
Settings: in vivo, po, 10 mg/kg, route gavage, dose level Low; for APTT / Bas / Eos / Fbg / Ht / Lym / MCHC / MCV / Mono / PT / Plat / RBC / Ret / WBC: tissue Blood; for KIDNEY_L / KIDNEY_R / KIDNEY_TOTAL: tissue Kidney; for LIVER: tissue Liver

Question: With `CN(C)CCCN1c2ccccc2CCc2ccccc21` [IMIPRAMINE] as the molecule, how does the TP (6 h, tissue Plasma) read?
Answer: The TP was 5.3 g/dL.

Question: What about the gamma-GTP (6 h, tissue Plasma) of the same molecule?
Answer: The gamma-GTP was 1 IU/L.

Question: And the TERMINAL_BW (9 h)?
Answer: Its TERMINAL_BW is 198.9 g.

Question: What about the APTT (9 h) of the same molecule?
Answer: Its APTT is 16.4 s.

Question: And the Bas (9 h)?
Answer: Its Bas is 0.2%.

Question: What about the Eos (9 h) of the same molecule?
Answer: The Eos was 1%.

Question: And the Fbg (9 h)?
Answer: Its Fbg is 294.4 mg/dL.

Question: And the Ht (9 h)?
Answer: Its Ht is 42.3%.

Question: And the Lym (9 h)?
Answer: The Lym was 75.6%.

Question: And the MCHC (9 h)?
Answer: The MCHC was 32.5%.

Question: What about the MCV (9 h) of the same molecule?
Answer: Its MCV is 64.4 fL.

Question: What about the Mono (9 h) of the same molecule?
Answer: Its Mono is 2.2%.

Question: What about the PT (9 h) of the same molecule?
Answer: Its PT is 15.9 s.

Question: And the Plat (9 h)?
Answer: Its Plat is 114.9 x10_4/uL.

Question: What about the RBC (9 h) of the same molecule?
Answer: Its RBC is 658 x10_4/ul.

Question: And the Ret (9 h)?
Answer: The Ret was 7.7%.

Question: What about the WBC (9 h) of the same molecule?
Answer: The WBC was 71.4 x10_2/uL.

Question: What about the KIDNEY_L (9 h) of the same molecule?
Answer: The KIDNEY_L was 0.9 g.

Question: What about the KIDNEY_R (9 h) of the same molecule?
Answer: The KIDNEY_R was 0.9 g.

Question: And the KIDNEY_TOTAL (9 h)?
Answer: Its KIDNEY_TOTAL is 1.8 g.

Question: And the LIVER (9 h)?
Answer: Its LIVER is 8.2 g.

Question: And the ALP (9 h, tissue Plasma)?
Answer: Its ALP is 1463.6 IU/L.

Question: What about the ALT (9 h, tissue Plasma) of the same molecule?
Answer: Its ALT is 37.6 IU/L.

Question: What about the AST (9 h, tissue Plasma) of the same molecule?
Answer: Its AST is 66.2 IU/L.

Question: What about the BUN (9 h, tissue Plasma) of the same molecule?
Answer: Its BUN is 7.4 mg/dL.

Question: And the CRE (9 h, tissue Plasma)?
Answer: Its CRE is 0.1 mg/dL.

Question: And the DBIL (9 h, tissue Plasma)?
Answer: The DBIL was 0.01 mg/dL.

Question: And the GLC (9 h, tissue Plasma)?
Answer: The GLC was 181 mg/dL.

Question: What about the IP (9 h, tissue Plasma) of the same molecule?
Answer: Its IP is 9.9 mg/dL.

Question: What about the K (9 h, tissue Plasma) of the same molecule?
Answer: Its K is 4.1 meq/L.

Question: And the LDH (9 h, tissue Plasma)?
Answer: Its LDH is 67.6 IU/L.

Question: And the PL (9 h, tissue Plasma)?
Answer: The PL was 137.4 mg/dL.

Question: And the RALB (9 h, tissue Plasma)?
Answer: The RALB was 2.6 g/dL.

Question: And the TBIL (9 h, tissue Plasma)?
Answer: Its TBIL is 0.066 mg/dL.

Question: And the TC (9 h, tissue Plasma)?
Answer: The TC was 78.4 mg/dL.

Question: And the TP (9 h, tissue Plasma)?
Answer: Its TP is 5.5 g/dL.

Question: What about the gamma-GTP (9 h, tissue Plasma) of the same molecule?
Answer: The gamma-GTP was 1.2 IU/L.

Question: And the TERMINAL_BW (24 h)?
Answer: The TERMINAL_BW was 217.3 g.

Question: And the APTT (24 h)?
Answer: Its APTT is 16.2 s.

Question: What about the Bas (24 h) of the same molecule?
Answer: The Bas was 0%.

Question: And the Eos (24 h)?
Answer: The Eos was 0.4%.

Question: And the Fbg (24 h)?
Answer: Its Fbg is 254 mg/dL.

Question: What about the Ht (24 h) of the same molecule?
Answer: Its Ht is 40.6%.

Question: And the Lym (24 h)?
Answer: Its Lym is 81%.

Question: What about the MCHC (24 h) of the same molecule?
Answer: Its MCHC is 32.3%.

Question: And the MCV (24 h)?
Answer: Its MCV is 65.1 fL.

Question: And the Mono (24 h)?
Answer: The Mono was 2.4%.

Question: What about the PT (24 h) of the same molecule?
Answer: The PT was 16.2 s.

Question: And the Plat (24 h)?
Answer: The Plat was 104.4 x10_4/uL.

Question: And the RBC (24 h)?
Answer: The RBC was 625.4 x10_4/ul.

Question: What about the Ret (24 h) of the same molecule?
Answer: The Ret was 7.4%.

Question: What about the WBC (24 h) of the same molecule?
Answer: The WBC was 76.3 x10_2/uL.

Question: And the KIDNEY_L (24 h)?
Answer: Its KIDNEY_L is 0.9 g.

Question: And the KIDNEY_R (24 h)?
Answer: The KIDNEY_R was 0.9 g.

Question: What about the KIDNEY_TOTAL (24 h) of the same molecule?
Answer: The KIDNEY_TOTAL was 1.8 g.

Question: What about the LIVER (24 h) of the same molecule?
Answer: Its LIVER is 9.7 g.

Question: And the ALP (24 h, tissue Plasma)?
Answer: The ALP was 1443 IU/L.

Question: And the ALT (24 h, tissue Plasma)?
Answer: The ALT was 48.6 IU/L.

Question: And the AST (24 h, tissue Plasma)?
Answer: The AST was 80.8 IU/L.

Question: What about the BUN (24 h, tissue Plasma) of the same molecule?
Answer: Its BUN is 15.6 mg/dL.

Question: And the CRE (24 h, tissue Plasma)?
Answer: Its CRE is 0.2 mg/dL.

Question: What about the GLC (24 h, tissue Plasma) of the same molecule?
Answer: The GLC was 187.2 mg/dL.

Question: What about the IP (24 h, tissue Plasma) of the same molecule?
Answer: The IP was 7.6 mg/dL.

Question: And the K (24 h, tissue Plasma)?
Answer: The K was 4 meq/L.

Question: And the LDH (24 h, tissue Plasma)?
Answer: The LDH was 73.2 IU/L.

Question: What about the RALB (24 h, tissue Plasma) of the same molecule?
Answer: The RALB was 2.5 g/dL.

Question: And the TBIL (24 h, tissue Plasma)?
Answer: The TBIL was 0.058 mg/dL.

Question: What about the TC (24 h, tissue Plasma) of the same molecule?
Answer: Its TC is 78 mg/dL.
